Source: patent US9271982B2, “Animal feed supplement comprising ractopamine and caffeine” (Rivalea (Australia) Pty Ltd, priority 2012, dated 2016)
Structures can show the parent of a compound that is named as a salt. Where two headings read alike, the source gives them in different places.

Legend:
[1] = system: finisher gilts and Improvac males; type: in vivo, pig; settings: for ADFI / FCR / Live weight Day 0 / Live weight Day 14 / Live weight Day 35: RAC 7.5 ppm / caffeine 0.5 kg/t in feed; for Live weight Day 0: day 0 baseline, 16 wk of age; for % pigs P2 >12 mm (carcass weight as covariate): carcass weight included as covariate; for % pigs P2 >12 mm: no covariate
Procedure: (§1) Pigs were selected to start on trial over three days during week 20 of the test year. […] All diets were formulated to contain 0.62 g available lysine/MJ DE and 13.8 MJ DE/kg.
(§2) Data were subjected to an analysis of variance (ANOVA) with the main effects being dietary treatment and sex. Replicate (start date within week) was included in the analyses to account for the blocking factor. The experimental unit for all analyses was the pen of pigs. All analyses were performed using Genstat 8th Edition (Payne R W, Harding S A, Genstat Committee 2005 Genstat release 8 reference manual, USN International: Oxford UK)

[2] = system: finisher gilts and Improvac males; assay: Study 1: deaths, removals and animal welfare during the test period; settings: for Deaths (dead/total pigs in treatment group) / Deaths, percentage of pigs: Study 1, entire 35 day test period
Source text: as §1

[3] = system: female and immunocastrated male pigs; assay: Study 2: RAC+caffeine strategy on heavier weight finishers, growth performance and carcass characteristics; type: in vivo, pig; settings: for ADFI / ADG / FCR: Study 2, RAC 7.5 ppm
Source text: Pigs were selected over a two week period. […] A: Control; B: […] The interpretation of results is then a direct measure of the impact of commercial diets without RAC and commercial diets that do contain RAC. […] Pigs were slaughtered in a commercial abattoir at the conclusion of the test period. A subset of carcasses (n=12 per treatment) were randomly selected at the abattoir and followed through the boning room for meat yield assessment. Data were subjected to an analysis of variance (ANOVA) with the main effects being dietary treatment and sex. Replicate (start date within week) was included in, the analyses to account for the blocking factor. The experimental unit for all analyses was the pen of pigs. All analyses were performed using Genstat 8th Edition (Payne et al. 2005).

[4] = system: female and immunocastrated male pigs; assay: Study 2: carcass (meat) yield in a subset of carcasses followed through the boning room; type: in vivo, pig; settings: Study 2 subset of carcasses, n = 12 per treatment
Source text: Pigs were slaughtered in a commercial abattoir at the conclusion of the test period. A subset of carcasses (n=12 per treatment) were randomly selected at the abattoir and followed through the boning room for meat yield assessment.
as §2, with “included in,” for “included in”, “(Payne et al. 2005).” for “(Payne R W, Harding S A, Genstat Committee 2005 Genstat release 8 reference manual, USN International: Oxford UK)”

[5] = system: female and immunocastrated male pigs; assay: Study 3: RAC+caffeine feeding strategy over summer, growth performance and carcase characteristics; type: in vivo, pig
Procedure: as §2, with “et al. 2005).” for “R W, Harding S A, Genstat Committee 2005 Genstat release 8 reference manual, USN International: Oxford UK)”

[6] = system: female and immunocastrated male pigs; settings: Study 3, 35 day test period
Procedure: All animals were selected to start the trial on the one day. Prior to the start of the trial, all pigs were offered a commercial grower diet (no Paylean) and had been in their allocated pens from 10 weeks of age. No remixing of pigs occurred before the start of the test period. […] Oxytetracycline was included in water for two days every fortnight for lawsonia control.
The priming Improvac™ vaccination was administered to the male pigs at 13 weeks of age and the second vaccination at 17 weeks of age (day 0 of the experimental period). Pen weights were recorded at the beginning of the experimental period (day 0, 17 weeks of age) and again at day 14 and day 35 (prior to slaughter). Pen feed Intakes were also recorded over these time periods as measured by feed disappearance and feed conversion efficiency subsequently calculated. All deaths and removals were recorded and taken into account when calculating feed intake and feed efficiency by the adjustment of the number of days that pigs were on trial.

finisher pigs = assay: Earlier study evaluating caffeine inclusion rates in finisher diets; type: in vivo, pig; settings: for Feed intake: without caffeine 2.62 kg/d
Source text: The management of weight and carcass P2 during Autumn is critical in markets that are paid on a grid of both parameters. The rate of fat deposition is at a maximum during the finisher period and is related to the amount of energy consumed by the pig. Excess energy intake above that required for protein deposition during this time is deposited as fat. As such, strategies to reduce feed intake from the excessive highs during autumn are often implemented. Caffeine is one ingredient that can be included in finisher diets to limit excessive feed intake. A study evaluating caffeine inclusion rates was conducted with the results confirming the intake restricting effects of caffeine inclusion. Feed intake was reduced from 2.62 kg/d to 2.45 and 2.33 kg/d with caffeine included in the diet at either 0.5 kg/t or 0.75 kg/t respectively. […] There has however been no evaluation of the effects of caffeine inclusion when the finisher diet also contains Paylean™. As such, the aim of this study was to determine the effects of caffeine inclusion when Paylean™ is also present in the finisher diet.

[7] = Study 1 (autumn), diets fed 35 days
[8] = Study 1 (autumn), diets fed 35 days, slaughter at 21 wk
[9] = caffeine 0.5 kg/t in feed, 0-14 days
[10] = caffeine 0.5 kg/t in feed, 0-28 days
[11] = caffeine 0.5 kg/t in feed, 14-28 days
[12] = Study 2, carcass weight included as covariate

## CC(CCc1ccc(O)cc1)NCC(O)c1ccc(O)cc1 (racemic) [RAC, Ractopamine hydrochloride]
[1]; Study 1 (autumn), 0-14 days
  ADFI: 2.72 kg/day
  FCR: 2.34 kg/kg
[1]; Study 1 (autumn), 0-35 days
  ADFI: 2.96 kg/day
  FCR: 2.67 kg/kg
[1]; Study 1 (autumn), 14-35 days
  ADFI: 3.13 kg/day
  FCR: 2.92 kg/kg
[1]; Study 1 (autumn)
  Live weight Day 0: 61.2 kg
  Live weight Day 14: 77.6 kg
  Live weight Day 35: 100.1 kg
[1]; [7]
  Dressing %: 77.6%
  % pigs P2 >12 mm (carcass weight as covariate): 26.4%
  % pigs P2 >12 mm: 29.0%
[1]; [8]
  Carcass P2 (carcass weight as covariate): 10.9 mm
  Carcass weight: 77.6
[2]; Study 1, 0-14 days
  Off trial: Lame (number of pigs): 1
  Off trial: Meningitis (number of pigs): 1
  Off trial: Wound (number of pigs): 1
  TOTAL deaths and removals (number of pigs): 3
[2]; Study 1, 14-35 days
  Deaths: Hernia (number of pigs): 1
  Deaths: Ileitis (number of pigs): 1
  Off trial: Lame (number of pigs): 1
  TOTAL deaths and removals (number of pigs): 3
[2]
  Deaths (dead/total pigs in treatment group): 2/298
  Deaths, percentage of pigs: 0.67%
[3]; Study 2
  Dressing %: 77.1%
[3]; Study 2 (22-26 wk), RAC 7.5 ppm, caffeine 0.5 kg/t in feed, day 0 baseline
  Live weight Day 0: 92.1 kg
[3]; Study 2 (22-26 wk), RAC 7.5 ppm, caffeine 0.5 kg/t in feed, day 14
  Live weight Day 14: 106 kg
[3]; Study 2 (22-26 wk), RAC 7.5 ppm, caffeine 0.5 kg/t in feed, day 28, in kg (unit assumed)
  Live weight Day 28: 120.1
[3]; [9]
  ADFI: 2.92 kg/day
  ADG: 0.995 kg/day
  FCR: 2.98 kg/kg
[3]; [10]
  ADFI: 3.04 kg/day
  ADG: 1.002 kg/day
  FCR: 3.11 kg/kg
[3]; [11]
  ADFI: 3.15 kg/day
  ADG: 1.008 kg/day
  FCR: 3.28 kg/kg
[3]; [12]
  Carcass P2 (carcass weight as covariate): 11.9 mm
  Loin depth (carcass weight as covariate): 58.3 mm
[3]; Study 2, no covariate
  Carcass P2: 12.0 mm
[3]; Study 2, slaughter at 26 wk
  Carcass weight: 92.9 kg
[4]
  Carcass P2 (carcass weight as covariate): 12.2 mm
  Cold carcass weight: 82.6 kg
  HSCW: 93.4 kg
  Loin depth (carcass weight as covariate): 58.2 mm
  Percentage Yield: Belly: 20.7%
  Percentage Yield: Belly Ribs: 11.39%
  Percentage Yield: Leg 90% chemical lean: 6.90%
  Percentage Yield: Middle 60-65% chemical lean: 2.43%
  Percentage Yield: Middle 80-85% chemical lean: 9.72%
  Percentage Yield: Middle rind plus fat: 10.58%
  Percentage Yield: Middle total fat: 7.36%
  Percentage Yield: Retail leg: 35.80%
  Percentage Yield: Tenderloin: 3.65%
  Percentage Yield: Topside cap off rind less: 7.79%
[5]; Study 3 (summer), RAC 7.5 ppm, caffeine 0.5 kg/t in feed, day 14
  Live weight Day 14: 79.4 kg
[5]; Study 3 (summer), RAC 7.5 ppm, caffeine 0.5 kg/t in feed, day 35
  Live weight Day 35: 100.5 kg
[5]; Study 3 (summer), Day 0-14
  Average daily feed intake: 2.36 kg/day
  Average daily gain: 1.132 kg/day
  Feed conversion ratio: 2.15 kg/kg
[5]; Study 3 (summer), Day 0-35
  Average daily feed intake: 2.62 kg/day
  Average daily gain: 1.056 kg/day
  Feed conversion ratio: 2.48 kg/kg
[5]; Study 3 (summer), Day 14-35
  Average daily feed intake: 2.79 kg/day
  Average daily gain: 1.004 kg/day
  Feed conversion ratio: 2.80 kg/kg
[5]; Study 3 (summer), carcase
  Loin muscle depth: 58.4 mm
[5]; Study 3 (summer), carcase, carcase weight not taken into account
  P2: 11.3 mm
[5]; Study 3 (summer, 17-22 wk), RAC 7.5 ppm, caffeine 0.5 kg/t in feed, day 0 baseline
  Live weight Day 0: 63.5 kg
[5]; Study 3, RAC at 7.5 ppm over the summer period
  Response (feed efficiency, daily gain, carcass composition) in words: negligible
[5]; Study 3, entire test period
  Average feed consumed: 2.6 kg feed/day
[5]; Study 3, initial 14 day period, not significant
  Feed efficiency, more efficient than the control animals: approximately 4%
[5]; Study 3, initial 14 days
  Average feed intake: 2.36 kg/day
[6]
  Combined deaths and removals (number/total pigs): 5/228
  Combined deaths and removals, percentage: 2.2%
  Deaths: APP (number of pigs): 2
  Deaths: Lame (number of pigs): 2
  Removals: Unthrifty (number of pigs): 1

## Cn1c(=O)c2c(ncn2C)n(C)c1=O [Caffeine]
[1]; Study 1 (autumn), 0-14 days
  ADFI: 2.44 kg/day
  FCR: 2.64 kg/kg
[1]; Study 1 (autumn), 0-35 days
  ADFI: 2.70 kg/day
  FCR: 2.78 kg/kg
[1]; Study 1 (autumn), 14-35 days
  ADFI: 2.88 kg/day
  FCR: 2.89 kg/kg
[1]; Study 1 (autumn)
  Live weight Day 0: 61.3 kg
  Live weight Day 14: 74.2 kg
  Live weight Day 35: 95.3 kg
[1]; [7]
  Dressing %: 77.9%
  % pigs P2 >12 mm (carcass weight as covariate): 22.3%
  % pigs P2 >12 mm: 19.5%
[1]; [8]
  Carcass P2 (carcass weight as covariate): 10.4 mm
  Carcass weight: 74.1
[1]; Study 1, statistical comparison between diets
  Carcass weight: reduced carcass weight compared to either of the RAC treatment groups
[2]; Large White×Landrace, pig, in vivo
  Off trial: Meningitis (number of pigs): 1
[2]; Study 1, 0-14 days
  TOTAL deaths and removals (number of pigs): 0
[2]; Study 1, 14-35 days
  Deaths: Ileitis (number of pigs): 1
  Deaths: SD (number of pigs): 1
  TOTAL deaths and removals (number of pigs): 4
[2]
  Deaths (dead/total pigs in treatment group): 2/307
  Deaths, percentage of pigs: 0.65%
[2]; both, Large White×Landrace, pig, in vivo
  Off trial: Lame (number of pigs): 1
Finisher pigs; caffeine 0.5 kg/t in diet
  Reduction of growth rate: 95 g/day
  Feed intake: 2.45 kg/day
Finisher pigs; caffeine 0.75 kg/t in diet
  Reduction of growth rate: 163 g/day
  Feed intake: 2.33 kg/day
